Source: ChEMBL document CHEMBL1151528, “The synthesis of heterosubstituted benzimidazole derivatives with potent angiotensin II antagonist activity” (Bioorg Med Chem Lett, 1993)

What was measured:
[1] = target: Angiotensin II receptor (Rattus norvegicus) (UniProt P29089+P25095+P35351); test: Inhibition of pressor response induced by Angiotensin II in Alderley Park Wistar rats after single intravenous dose; format: functional
[2] = target: angiotensin II receptor (Cavia porcellus); test: Displacement of monoiodinated angiotensin II from guinea-pig adrenal gland angiotensin II receptor

Structure (SMILES)	ED50 [1] [mg/kg]	IC50 [2] [µM]
CCCCc1nc2c(=O)[nH][nH]c(=O)c2n1Cc1ccc(-c2ccccc2-c2nn[nH]n2)cc1	0.04	–
CCCCc1nc2cnnc(O)c2n1Cc1ccc(-c2ccccc2-c2nn[nH]n2)cc1	0.62	0.022
CCCCc1nc2cnncc2n1Cc1ccc(-c2ccccc2C(=O)O)cc1	5.2	10
CCCCc1nc2ccccc2n1Cc1ccc(-c2ccccc2-c2nn[nH]n2)cc1	5.2	–
CCCCc1nc2cnnc(O)c2n1Cc1ccc(-c2ccccc2C(=O)O)cc1	6.7	–
CCCCc1nc(C(=O)OCC)c(C(=O)OCC)n1Cc1ccc(-c2ccccc2-c2nn[nH]n2)cc1	–	0.255
CCCCc1nc2cnn(C)c(=O)c2n1Cc1ccc(-c2ccccc2C(=O)O)cc1	47	10
CCCCc1nc2ccnc(O)c2n1Cc1ccc(-c2ccccc2-c2nn[nH]n2)cc1	0.35	0.016
CCc1nc2c(C)cc(C)nc2n1Cc1ccc(-c2ccccc2-c2nn[nH]n2)cc1	0.22	–
CCCCc1nc2cnn(Cc3ccc(-c4ccccc4C(=O)OC)cc3)cc-2n1	–	100
CCCCc1nc(Cl)c(CO)n1Cc1ccc(-c2ccccc2-c2nnn[nH]2)cc1	0.65	–
